Earlier results on four compounds are cited in US20160361270A1, “UNIFORM, HIGH BASIS WEIGHT NANOFIBER FABRICS FOR MEDICAL APPLICATIONS” (University of Washington, priority 2015, published 2016).

Assay in series [1]: not given
This is another data set of the same source.

With `C[C@H](Cn1cnc2c(N)ncnc21)OCP(=O)(O)O` [tenofovir], the water solubility is reported as more than 1 mg/mL.

For `Cc1nnc(C(=O)NC(C)(C)c2nc(C(=O)NCc3ccc(F)cc3)c(O)c(=O)n2C)o1` [raltegravir], the pKa in series [1] is reported as 7.

As for `Cc1cc(C#N)cc(C)c1Oc1nc(Nc2ccc(C#N)cc2)nc(N)c1Br` [etravirine], the water solubility is less than 0.1 mg/mL.

Consider `Cc1cc(C)c(Nc2ccnc(Nc3ccc(C#N)cc3)n2)c(C)c1` [dapivirine], for which the water solubility was less than 0.001 mg/mL.

What is called pKa is the negative logarithm of the acid dissociation constant.
